For one assay, the target named is T1, HnoK (Caulobacter vibrioides, UniProt A0A0H3CAQ8, D543N).
T1 construct: gene CCNA_03088; N-terminal 6-His version also tested; E. coli BL21(DE3); homodimer
The assay is described as follows: […] autophosphorylation, SDS-PAGE autoradiography. The assay is classed as biochemical. Conditions: 1 mM ATP with [gamma-32P]ATP, Mn2+ or Mg2+ 5 mM (Mn2+ preferred), room temperature; MBP fusion; labelled compound.

Assay [1] concerns the target Caulobacter crescentus histidine kinase HnoK, as purified (Caulobacter crescentus). Kind of assay: SEC; HiPrep Sephacryl S-200 HR column in 20 mM Tris, pH 8, 150 mM NaCl; elution volumes at the last step of purification.

T1 sequence (A0A0H3CAQ8 entry or part of it D543N): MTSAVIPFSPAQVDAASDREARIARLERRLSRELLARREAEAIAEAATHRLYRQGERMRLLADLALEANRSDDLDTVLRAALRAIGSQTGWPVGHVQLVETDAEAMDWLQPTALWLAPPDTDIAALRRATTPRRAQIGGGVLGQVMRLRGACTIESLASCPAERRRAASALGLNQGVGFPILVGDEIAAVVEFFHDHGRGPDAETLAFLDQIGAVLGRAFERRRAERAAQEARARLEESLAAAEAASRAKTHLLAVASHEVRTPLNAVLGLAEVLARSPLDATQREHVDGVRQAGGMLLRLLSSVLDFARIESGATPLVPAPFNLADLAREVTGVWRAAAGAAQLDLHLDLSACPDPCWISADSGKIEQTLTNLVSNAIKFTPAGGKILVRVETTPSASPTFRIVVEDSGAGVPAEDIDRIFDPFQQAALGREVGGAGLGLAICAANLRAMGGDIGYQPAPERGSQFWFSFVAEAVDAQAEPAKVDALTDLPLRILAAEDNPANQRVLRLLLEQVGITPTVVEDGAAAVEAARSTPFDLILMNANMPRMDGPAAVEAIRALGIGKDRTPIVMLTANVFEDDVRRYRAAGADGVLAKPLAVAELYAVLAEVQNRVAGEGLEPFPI

Take `Nc1ncnc2c1ncn2[C@@H]1O[C@H](COP(=O)(O)OP(=O)(O)OP(=O)(O)O)[C@@H](O)[C@H]1O` [ATP]: at HnoK, the “32P autophosphorylation, SDS-PAGE autoradiography” value is reported as “D543N HnoK-MBP was used for the autophosphorylation assays shown”.
Usually stoichiometry N stands for a count of units in the complex or per binding partner. For the molecule “Caulobacter crescentus histidine kinase HnoK, as purified (from UniProt A0A0H3CAQ8 1-624) (enzyme)”, the stoichiometry N in assay [1] was determined as 2.

Values taken from publication PMC12329717 (Biochemistry, 2025).
